Results reported in patent publication US20250101041A1, “POSITIVE ALLOSTERIC MODULATORS OF THE MUSCARINIC ACETYLCHOLINE RECEPTOR M4” (Vanderbilt University, priority 2022, published 2025).

Target: T1, human mAChR M4 (Homo sapiens, UniProt P08173)
T1 construct: expressed in transfected cells; host or cells: CHO-K1 (American Type Culture Collection), stably expressing hM4 and Gqi5
T1 sequence (P08173 1-479): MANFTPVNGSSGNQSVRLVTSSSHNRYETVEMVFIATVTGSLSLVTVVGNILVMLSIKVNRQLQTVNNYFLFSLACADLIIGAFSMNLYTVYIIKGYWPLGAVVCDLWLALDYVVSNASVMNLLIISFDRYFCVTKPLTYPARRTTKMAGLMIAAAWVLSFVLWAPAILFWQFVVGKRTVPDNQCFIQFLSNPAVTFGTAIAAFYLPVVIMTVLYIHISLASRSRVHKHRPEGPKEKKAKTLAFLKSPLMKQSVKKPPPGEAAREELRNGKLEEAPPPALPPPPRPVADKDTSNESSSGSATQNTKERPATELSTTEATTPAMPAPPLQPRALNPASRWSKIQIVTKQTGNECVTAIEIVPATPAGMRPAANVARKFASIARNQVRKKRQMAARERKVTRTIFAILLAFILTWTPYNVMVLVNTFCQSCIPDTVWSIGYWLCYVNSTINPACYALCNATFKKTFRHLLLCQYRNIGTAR
Assay: mAChR M4 cell-based functional assay: calcium mobilization (Fluo-4, FDSS), potentiation of EC20 acetylcholine response in hM4-Gqi5 CHO-K1 cells
Conditions: human M4; for Emax at 30 µM: CHO-K1, % ACh maximum at 30 μM; for EC50: potentiation of EC20 acetylcholine response, calcium mobilization
Protocol: Human and rat M4 cDNAs, along with the chimeric G protein Gqi5, were transfected into Chinese hamster ovary (CHO-K1) cells purchased from the American Type Culture Collection using Lipofectamine2000. hM4-Gqi5 cells were grown in Ham's F-12 medium containing 10% heat-inactivated fetal bovine serum (FBS), 20 mM HEPES, 50 μg/mL G418 sulfate, and 500 μg/mL Hygromycin B. rM4-Gqi5 cells were grown in DMEM containing 10% heat-inactivated FBS, 20 mM HEPES, 400 μg/mL G418 sulfate, and 500 μg/mL Hygromycin B.
For high throughput measurement of agonist-evoked increases in intracellular calcium, CHO-K1 cells stably expressing muscarinic receptors were plated in growth medium lacking G418 and hygromycin at 15,000 cells/20 μL/well in Greiner 384-well black-walled, tissue culture (TC)-treated, clear-bottom plates (VWR). Cells were incubated overnight at 37° C. and 5% CO2. The next day, cells were washed using an ELX 405 (BioTek) with assay buffer; the final volume was then aspirated to 20 μL. Next, 20 μL of a […] of Fluo-4/acetoxymethyl ester (Invitrogen, Carlsbad, CA), prepared as a 2.3 mM stock in DMSO and mixed in a 1:1 ratio with 10% (w/v) Pluronic F-127 and diluted in assay buffer, was added to the wells and the cell plates were incubated for 50 min at 37° C. and 5% CO2. Dye was removed by washing with the ELX 405 and the final volume was aspirated to 20 μL. Compound master plates were formatted in an 11 point concentration-response curve (CRC) format (1:3 dilutions) in 100% DMSO with a starting concentration of 10 mM using a BRAVO liquid handler (Agilent). Test compound CRCs were then transferred to daughter plates (240 nL) using the Echo acoustic plate reformatter (Labcyte, Sunnyvale, CA) and then diluted into assay buffer (40 μL) to a 2× stock using a Thermo Fisher Combi (Thermo Fisher Scientific, Waltham, MA).
Calcium flux was measured using the Functional Drug Screening System (FDSS) 6000 or 7000 (Hamamatsu Corporation, Tokyo, Japan) as an increase in the fluorescent static ratio. Compounds were applied to cells (20 μL, 2X) using the automated system of the FDSS at 2-4 seconds into the protocol and the data were collected at 1 Hz. At 144 seconds, 10 μL of an EC20 concentration of the muscarinic receptor agonist acetylcholine was added (5×), followed by the addition of 12 μL of an […] concentration of acetylcholine at the 230 second time point (5×). Agonist activity was analyzed as a concentration-dependent increase in calcium mobilization upon compound addition. Positive allosteric modulator activity was analyzed as a concentration-dependent increase in the EC20 acetylcholine response. Antagonist activity was analyzed as a concentration-dependent decrease in the EC20 acetylcholine response. Concentration-response curves were generated using a four-parameter logistical equation in XLFit curve fitting software (IDBS, Bridgewater, NJ) for Excel (Microsoft, Redmond, WA) or Prism (GraphPad Software, Inc., San Diego, CA).
Compounds were synthesized as described above. Activity (EC50 and Emax) was determined in the mAChR M4 cell-based functional assay as described above and the data are shown in Table 4. The compound number corresponds to the compound numbers used in Tables 1-3.

SMILES | Emax at 30 µM | EC50
CCc1cnc2cc(C)c(N3CCc4ncc(C(F)(F)F)cc4C3)nn2c1=O [Compound 1-24, 3-Ethyl-8-methyl-7-(3-(trifluoromethyl)-7,8-dihydro-1,6-naphthyridin-6(5H)-yl)-4H-pyrimido[1,2-b]pyridazin-4-one] | 75% | 309 nM
Cc1cc2nccc(=O)n2nc1N1CCc2ncc(N3CCc4ccccc43)cc2C1 [Compound 2-85, 7-(3-(indolin-1-yl)-7,8-dihydro-1,6-naphthyridin-6(5H)-yl)-8-methyl-4H-pyrimido[1,2-b]pyridazin-4-one] | 95% | 22 nM
Cc1c(N2CCc3ncc(-c4cnn(-c5ccccc5F)c4)cc3C2)nn2c(=O)ccnc2c1C [Compound 1-193, 7-(3-(1-(2-fluorophenyl)-1H-pyrazol-4-yl)-7,8-dihydro-1,6-naphthyridin-6(5H)-yl)-8,9-dimethyl-4H-pyrimido[1,2-b]pyridazin-4-one] | 71% | 783 nM
Cc1cc(=O)n2nc(N3CCc4ncc(N5C[C@@H](C)O[C@@H](C)C5)cc4C3)c(C)c(C)c2n1 [Compound 2-38, 7-(3-((2R,6S)-2,6-dimethylmorpholino)-7,8-dihydro-1,6-naphthyridin-6(5H)-yl)-2,8,9-trimethyl-4H-pyrimido[1,2-b]pyridazin-4-one] | 76% | 1300 nM
Cc1cc2nccc(=O)n2nc1N1CCc2ncc(-c3scnc3C)cc2C1 [Compound 1-395, 8-methyl-7-(3-(4-methylthiazol-5-yl)-7,8-dihydro-1,6-naphthyridin-6(5H)-yl)-4H-pyrimido[1,2-b]pyridazin-4-one] | 90% | 138 nM
Cc1cc2ncc(C3=CCCC3)c(=O)n2nc1N1CCc2ncc(C(F)(F)F)cc2C1 [Compound 1-20, 3-(Cyclopent-1-en-1-yl)-8-methyl-7-(3-(trifluoromethyl)-7,8-dihydro-1,6-naphthyridin-6(5H)-yl)-4H-pyrimido[1,2-b]pyridazin-4-one] | 70% | 586 nM
Cc1ccc(-c2cnc3c(c2)CN(c2nn4c(=O)cc(C)nc4c(C)c2C)CC3)cn1 [Compound 1-82, 2,8,9-trimethyl-7-(3-(6-methylpyridin-3-yl)-7,8-dihydro-1,6-naphthyridin-6(5H)-yl)-4H-pyrimido[1,2-b]pyridazin-4-one] | 100% | 145 nM
Cc1ccc(-c2cnc3c(c2)CN(c2nn4c(=O)cc(C5CC5)nc4cc2C)CC3)cn1 [Compound 1-79, 2-cyclopropyl-8-methyl-7-(3-(6-methylpyridin-3-yl)-7,8-dihydro-1,6-naphthyridin-6(5H)-yl)-4H-pyrimido[1,2-b]pyridazin-4-one] | 109% | 66 nM
Cc1cc(=O)n2nc(N3CCc4ncc(-c5ccnnc5)cc4C3)c(C)c(C)c2n1 [Compound 1-132, 2,8,9-trimethyl-7-(3-(pyridazin-4-yl)-7,8-dihydro-1,6-naphthyridin-6(5H)-yl)-4H-pyrimido[1,2-b]pyridazin-4-one] | 92% | 798 nM
COCc1cc(=O)n2nc(N3CCc4ncc(-c5ncc(C)cc5C)cc4C3)c(C)cc2n1 [Compound 1-381, 7-(3-(3,5-dimethylpyridin-2-yl)-7,8-dihydro-1,6-naphthyridin-6(5H)-yl)-2-(methoxymethyl)-8-methyl-4H-pyrimido[1,2-b] pyridazin-4-one] | 83% | 969 nM
Cc1cc(F)c(F)c(-c2cnc3c(c2)CN(c2nn4c(=O)ccnc4c(C)c2C)CC3)c1 [Compound 1-341, 7-(3-(2,3-difluoro-5-methylphenyl)-7,8-dihydro-1,6-naphthyridin-6(5H)-yl)-8,9-dimethyl-4H-pyrimido[1,2-b]pyridazin-4-one] | 75% | 673 nM
Cc1c(N2CCc3ncc(-c4cncnc4)cc3C2)nn2c(=O)ccnc2c1C [Compound 1-104, 8,9-dimethyl-7-(3-(pyrimidin-5-yl)-7,8-dihydro-1,6-naphthyridin-6(5H)-yl)-4H-pyrimido[1,2-b]pyridazin-4-one] | 90% | 696 nM
Cc1cc2nccc(=O)n2nc1N1CCc2ncc(-c3cncn3C)cc2C1 [Compound 1-392, 8-methyl-7-(3-(1-methyl-1H-imidazol-5-yl)-7,8-dihydro-1,6-naphthyridin-6(5H)-yl)-4H-pyrimido[1,2-b] pyridazin-4-one] | 105% | 259 nM
Cc1cc2nccc(=O)n2nc1N1CCc2ncc(Nc3cccnc3F)cc2C1 [Compound 2-78, 7-(3-((2-fluoropyridin-3-yl)amino)-7,8-dihydro-1,6-naphthyridin-6(5H)-yl)-8-methyl-4H-pyrimido[1,2-b]pyridazin-4-one] | 103% | 102 nM
Cc1cc2ncc(-c3ccccc3)c(=O)n2nc1N1CCc2ncc(C(F)(F)F)cc2C1 [Compound 1-21, 8-methyl-3-phenyl-7-(3-(trifluoromethyl)-7,8-dihydro-1,6-naphthyridin-6(5H)-yl)-4H-pyrimido[1,2-b]pyridazin-4-one] | 75% | 136 nM
Cc1cc(=O)n2nc(N3CCc4ncc(-c5ccncc5C)cc4C3)c(C)c(C)c2n1 [Compound 1-245, 2,8,9-trimethyl-7-(3-(3-methylpyridin-4-yl)-7,8-dihydro-1,6-naphthyridin-6(5H)-yl)-4H-pyrimido[1,2-b] pyridazin-4-one] | 87% | 72 nM
Cc1c(N2CCc3ncc(-c4ccc(N(C)C)nc4)cc3C2)nn2c(=O)cc(C(F)F)nc2c1C [Compound 1-92, 2-(difluoromethyl)-7-(3-(6-(dimethylamino)pyridin-3-yl)-7,8-dihydro-1,6-naphthyridin-6(5H)-yl)-8,9-dimethyl-4H-pyrimido[1,2-b]pyridazin-4-one] | 76% | 339 nM
Cc1cc2nccc(=O)n2nc1N1CCc2ncc(-c3cccnc3C(C)(C)O)cc2C1 [Compound 1-418, 7-(3-(2-(2-hydroxypropan-2-yl)pyridin-3-yl)-7,8-dihydro-1,6-naphthyridin-6(5H)-yl)-8-methyl-4H-pyrimido[1,2-b]pyridazin-4-one] | 48% | –
Cc1c(N2CCc3ncc(N4CCCS4(=O)=O)cc3C2)nn2c(=O)ccnc2c1C [Compound 2-146, 7-(3-(1,1-dioxidoisothiazolidin-2-yl)-7,8-dihydro-1,6-naphthyridin-6(5H)-yl)-8,9-dimethyl-4H-pyrimido[1,2-b]pyridazin-4-one] | 78% | 1480 nM
Cc1cc2nccc(=O)n2nc1N1CCc2ncc(-c3cncc(C(C)(C)O)c3)cc2C1 [Compound 1-419, 7-(3-(5-(2-hydroxypropan-2-yl)pyridin-3-yl)-7,8-dihydro-1,6-naphthyridin-6(5H)-yl)-8-methyl-4H-pyrimido[1,2-b]pyridazin-4-one] | 82% | 1120 nM
Cc1cc2n(n1)CCCN2c1cnc2c(c1)CN(c1nn3c(=O)cc(C(F)F)nc3cc1C)CC2 [Compound 2-28, 2-(difluoromethyl)-8-methyl-7-(3-(2-methyl-6,7-dihydropyrazolo[1,5-a]pyrimidin-4(5H)-yl)-7,8-dihydro-1,6-naphthyridin-6(5H)-yl)-4H-pyrimido[1,2-b]pyridazin-4-one] | 85% | 19 nM
